ChEMBL document CHEMBL1128920, “Tetrahydrothienopyridine derivatives as novel GPIIb/IIIa antagonists” (Bioorg Med Chem Lett, 1996)
“And” between values parts separate entries of the source, which are not always exact repeats. Identical values can stand only once.

Tests used:
[1] = species: Homo sapiens; assay: Inhibitory activity against ADP-mediated human platelet aggregation in human platelet rich plasma; assay type: functional
[2] = target: T1, Integrin alpha-IIb/beta-3 (Homo sapiens, UniProt P05106+P08514); assay: Inhibition of biotinylated fibrinogen binding to alphaIIb-beta3 integrin; assay type: protein-complex assay
[3] = target: T1, Integrin alpha-IIb/beta-3; assay: Biotinylated fibrinogen binding to alpha IIb beta-3 integrin; assay type: protein-complex assay
[4] = target: T1, Integrin alpha-IIb/beta-3; assay: Inhibition of vWF binding to GPIIb/IIIIa receptor; assay type: protein-complex assay
[5] = target: T1, Integrin alpha-IIb/beta-3; assay: Inhibition of Vitronectin binding to GPIIb/IIIIa Vitronectin receptor; assay type: protein-complex assay
[6] = Inhibition of fibronectin binding to GPIIb/IIIIa fibronectin receptor
[7] = target: T1, Integrin alpha-IIb/beta-3; assay: Inhibition of vWF binding to alphaIIb-beta3 integrin; assay type: protein-complex assay

T1 sequence (P05106 27-788 limits assumed): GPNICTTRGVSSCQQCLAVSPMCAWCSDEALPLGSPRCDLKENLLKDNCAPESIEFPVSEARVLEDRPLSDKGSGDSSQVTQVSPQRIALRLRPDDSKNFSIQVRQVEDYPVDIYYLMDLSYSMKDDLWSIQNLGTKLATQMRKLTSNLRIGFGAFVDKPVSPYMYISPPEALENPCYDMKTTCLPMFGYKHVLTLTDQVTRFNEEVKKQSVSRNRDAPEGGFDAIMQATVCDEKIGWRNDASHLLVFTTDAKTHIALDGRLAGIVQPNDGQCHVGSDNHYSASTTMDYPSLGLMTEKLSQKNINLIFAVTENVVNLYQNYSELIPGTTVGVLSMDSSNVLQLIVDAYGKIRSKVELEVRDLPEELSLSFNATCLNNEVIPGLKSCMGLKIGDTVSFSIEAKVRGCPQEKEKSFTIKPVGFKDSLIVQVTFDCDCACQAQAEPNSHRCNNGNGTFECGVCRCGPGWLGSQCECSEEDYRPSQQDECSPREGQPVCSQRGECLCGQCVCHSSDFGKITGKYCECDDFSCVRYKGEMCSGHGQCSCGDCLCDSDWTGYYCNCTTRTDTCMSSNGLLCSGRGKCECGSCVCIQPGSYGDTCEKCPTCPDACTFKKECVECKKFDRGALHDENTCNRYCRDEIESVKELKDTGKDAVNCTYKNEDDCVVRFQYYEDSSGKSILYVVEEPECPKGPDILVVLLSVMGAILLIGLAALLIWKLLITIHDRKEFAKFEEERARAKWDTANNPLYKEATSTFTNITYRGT
T1 sequence (P08514 32-887 limits assumed): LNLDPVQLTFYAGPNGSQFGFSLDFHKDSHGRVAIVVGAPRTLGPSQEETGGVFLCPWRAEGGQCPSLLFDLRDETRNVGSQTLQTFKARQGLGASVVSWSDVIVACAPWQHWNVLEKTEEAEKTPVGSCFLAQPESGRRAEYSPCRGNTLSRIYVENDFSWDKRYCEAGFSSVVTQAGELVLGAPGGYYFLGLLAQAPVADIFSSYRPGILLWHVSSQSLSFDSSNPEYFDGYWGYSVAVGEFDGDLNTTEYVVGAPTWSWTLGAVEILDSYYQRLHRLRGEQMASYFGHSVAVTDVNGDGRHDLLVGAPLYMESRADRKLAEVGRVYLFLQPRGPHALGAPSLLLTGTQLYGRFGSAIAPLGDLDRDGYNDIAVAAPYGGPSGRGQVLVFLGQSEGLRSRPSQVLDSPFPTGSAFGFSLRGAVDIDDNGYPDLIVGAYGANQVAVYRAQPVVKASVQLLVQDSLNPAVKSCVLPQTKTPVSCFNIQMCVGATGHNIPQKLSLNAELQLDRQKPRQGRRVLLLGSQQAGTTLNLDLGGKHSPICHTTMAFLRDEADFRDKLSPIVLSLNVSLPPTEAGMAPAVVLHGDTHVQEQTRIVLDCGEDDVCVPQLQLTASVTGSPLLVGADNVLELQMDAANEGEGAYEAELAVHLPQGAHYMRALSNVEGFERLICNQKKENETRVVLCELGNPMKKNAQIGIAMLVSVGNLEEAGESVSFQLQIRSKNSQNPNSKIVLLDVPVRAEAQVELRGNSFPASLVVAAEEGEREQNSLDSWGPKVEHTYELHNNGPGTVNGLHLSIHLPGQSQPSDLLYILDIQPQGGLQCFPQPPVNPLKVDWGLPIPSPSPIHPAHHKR
T1 sequence (P08514 891-1039 limits assumed): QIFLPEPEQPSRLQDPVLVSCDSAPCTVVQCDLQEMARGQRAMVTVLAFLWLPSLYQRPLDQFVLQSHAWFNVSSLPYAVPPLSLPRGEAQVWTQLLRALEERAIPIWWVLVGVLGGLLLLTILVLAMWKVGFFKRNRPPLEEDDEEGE

| Compound | IC50 [1] [nM] | IC50 [3] | also measured |
| --- | --- | --- | --- |
| O=C(O)COc1cnc(C(=O)CNC(=O)c2cc3c(s2)CCNC3)cc1OCC(=O)O | 470 | 9.8 nM |  |
| O=C(O)COc1ccc(C(=O)CNC(=O)c2sc3c(c2Cc2ccccc2)CNCC3)cc1OCC(=O)O | > 10000 | 62 nM |  |
| NC(N)=NCCC[C@H](N)C(=O)NCC(=O)N[C@@H](CC(=O)O)C(=O)O | 87000 |  | IC50 [2]: 76 nM; IC50 [4]: 4 µM; IC50 [5]: 1400 nM; IC50 [6]: 510 nM |
| O=C(O)COc1ccc(C(=O)CNC(=O)c2cc3c(s2)CNC3)cc1OCC(=O)O | 1600 |  | IC50 [2]: > 100 nM |
| O=C(O)COc1ccc(C(=O)CNC(=O)c2cc3c(s2)CCCNC3)cc1OCC(=O)O | 1900 | 8.7 nM |  |
| O=C(O)COc1ccc(C(=O)CNC(=O)c2cc3c(s2)CCNC3)cc1 | 1200 | 31 nM |  |
| O=C(O)COc1cc(OCC(=O)O)cc(C(=O)CNC(=O)c2cc3c(s2)CCNC3)c1 | > 10000 | > 1000 nM |  |
| O=C(O)COc1ccc(C(=O)CNC(=O)c2cc3c(s2)CCNC3)c(OCC(=O)O)c1 | 1500 | > 100 nM |  |
| O=C(O)COc1ccc(C(=O)CNC(=O)c2cc3c(s2)CCNC3)nc1 | 720 | 100 nM |  |
| Cc1c(C(=O)NCC(=O)c2ccc(OCC(=O)O)c(OCC(=O)O)c2)sc2c1CNCC2 | 2500 | 18 nM |  |
| O=C(O)CCc1ccc(C(=O)CNC(=O)c2cc3c(s2)CCNC3)cc1 | > 10000 | 80 nM |  |

The next lines start with results.

| IC50 [1] [nM] | IC50 [3] | Compound | also measured |
| --- | --- | --- | --- |
| 9000 |  | O=C(O)COc1ccc(C(=O)CNC(=O)CCCC2CCNCC2)cc1OCC(=O)O | IC50 [2]: > 100 nM |
| 150 | 6 nM | O=C(O)COc1ccc(C(=O)CNC(=O)c2cc3c(s2)CCNCC3)cc1OCC(=O)O |  |
| 160 | 4.7 nM and 5.6 nM | O=C(O)COc1ccc(C(=O)CNC(=O)c2cc3c(s2)CCNC3)cc1OCC(=O)O | IC50 [5]: > 100000 nM; IC50 [6]: > 100000 nM; IC50 [7]: 28 nM |
| 230 | 1.4 nM | O=C(O)COc1ccc(C(=O)CNC(=O)c2cc3c(s2)CNCC3)cc1OCC(=O)O |  |
| 9800 | > 1000 nM | O=C(O)COc1ccc(C(=O)CNC(=O)C2CCNCC2)cc1OCC(=O)O |  |
| 350 | 42 nM | O=C(O)COc1ccc(C(=O)CNC(=O)CCC2CCNCC2)cc1OCC(=O)O |  |
| 4300 |  | NCC1CCC(C(=O)NCC(=O)c2ccc(OCC(=O)O)c(OCC(=O)O)c2)CC1 (centres undefined) | IC50 [2]: 730 nM |
| 10000 | > 100 nM | O=C(O)COc1ccc(C(=O)CNC(=O)CC2CCNCC2)cc1OCC(=O)O |  |
